This is an account of results in the METLIN SMRT retention time set (Domingo-Almenara et al. 2019).

SMILES strings stand for the structures.

A short description of the series: gradient 5% acetonitrile 3 min, to 50% in 2 min, to 85% in 15 min, held 3 min, 100 µL/min. Conditions: column: Zorbax Extend-C18 2.1 x 50 mm; eluents: water / acetonitrile, 0.1% formic acid. Summed up:
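Pure standards were run in mixtures of ~100 molecules by HPLC coupled to a quadrupole time-of-flight mass spectrometer. The column was a Zorbax Extend-C18 (2.1 × 50 mm, 1.8 μm) at 100 μL/min, with water and acetonitrile each containing 0.1% formic acid, in positive and negative ionization mode. Dead and dwell volumes were 40 μL and 900 μL. Retention time was taken from computationally picked adduct peaks, each manually inspected, with data collected over 3 months.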
As for `O=C(OCc1cc(-c2cc3ccccc3o2)on1)c1ccccc1S(=O)(=O)C(F)F`, the RP-LC retention time was found to be 1090 s.
As to `O=C(c1cccs1)N1CCC(Nc2ncnc3c2CCC3)C1` (centres undefined), the RP-LC retention time was 547 s.
As to `Cn1c(=O)n(C)c2cc(CNc3ccc4[nH]c(=O)[nH]c4c3)ccc21`, the RP-LC retention time was 561 s.
With `Cc1cc2c(=O)n(CC(=O)Nc3ccc(Cl)cc3C)ccc2s1`, the RP-LC retention time stood at 833 s.
The result for `CCc1cc(-c2csc(S(=O)(=O)N3CCN(c4ccc(Cl)cc4)CC3)c2)on1` reads 1200 s; that for `CCOC(=O)COc1cc(-c2ccc(F)cc2)nc2ccc(NC(=O)C3CCC3)cc12`, 810 s.
In turn, `Cc1cc(N2CCOCC2)nc(N2CCOCC2)n1` showed an RP-LC retention time of 624 s.
The result for `Cc1ccccc1CNC(=O)C1(C)CCCN(C(=O)Nc2ccccc2C(F)(F)F)C1` (centres undefined) reads 1010 s.
The result for `CC(NC(=O)COc1ccc(NC(=O)C2CC2)cn1)c1ccccc1` (centres undefined) reads 744 s.
Next, `Cc1nc(CC(=O)NCc2ccc(C(F)(F)F)cc2)sc1C(=O)NCc1ccccc1`: 805 s.
For the compound `COc1cc2c(cc1OC)C(C(=O)NC1CCCCC1)C(c1cccnc1)N(C)C2=O` (centres undefined), the RP-LC retention time turned out to be 994 s.
Next, `CCN(CC)CCN(CC(=O)N1CCNCC1)S(=O)(=O)c1ccc(C)c(C)c1`: 576 s; `O=C(Cc1cccs1)NC1CC(=O)N(C2CC2)C1` (centres undefined): 584 s; `CN(C)C(=O)c1cc2c(s1)CCC(C(=O)NCc1ccc(N3CCOCC3)cc1)C2` (centres undefined): 655 s.
Next, `CC(C)(C)c1ccc(S(=O)(=O)N2CCCC2c2nc(-c3ccc(F)cc3)no2)cc1` (centres undefined): 1310 s; `O=C(CC(c1cccc(F)c1)n1cccc1)N1CCN(c2ccccn2)CC1` (centres undefined): 686 s; `Cn1cnc(S(=O)(=O)N2CCC(C(=O)NC3CCCCC3)CC2)c1`: 659 s.
Take `CCn1nccc1C(=O)NC(C)(C)c1nc2c(c(C(N)=O)n1)OCO2`: the RP-LC retention time worked out at 614 s.
The result for `CC(C)n1nnc2cc(S(=O)(=O)N3CCCC(C(=O)N4CCCCCC4)C3)ccc21` (centres undefined) reads 886 s; that for `O=C(c1ccncc1)N1CCCC(c2nc(-c3ccc(F)cc3)n[nH]2)C1` (centres undefined), 614 s; that for `Cc1cc(=O)n(CC(=O)N2CCOCC2)c(N2CCOCC2)n1`, 534 s.
Next, `COCCN1C(=O)c2ccccc2C(C(=O)Nc2ccc(OC)cc2OC)C12CCCC2` (centres undefined): 871 s; `CCCCN(C)C(=O)Cn1c(=O)c2cnc(-c3ccccc3)nc2n(C)c1=O`: 1000 s; `CCOC(=O)C1CCN(S(=O)(=O)c2cc(-c3c(CC)noc3NC(C)=O)ccc2OC)CC1`: 797 s.
Next, `COc1ccc(Cl)cc1NC(=O)Nc1ccc2c(c1)N(C)C(=O)C(C)(C)CO2`: 981 s; `O=C(NCC1CCCO1)c1ccc2ncnc(N3CCCC3)c2c1` (centres undefined): 575 s.
Take `CCn1cc(-c2nc(C(=O)Nc3cccc(C#N)c3)cs2)c2cccnc21`: the RP-LC retention time is 1030 s.
Next, `Cc1cc(NCc2ccccn2)n2c(nc3ccccc32)c1C#N`: 590 s.
Regarding `CCCCNC(=O)Cn1cccc(-c2nc(-c3ccc(F)cc3)no2)c1=O`, the RP-LC retention time is 790 s.
Next, `CCn1c(=O)c(N2CCN(C(=O)NCc3ccc(C)cc3)CC2)nc2ccccc21`: 927 s.
Next, `O=C(C(Cl)Cl)N1CC2CCC(CC2)C1`: 956 s; `COc1ccc(-c2nnc(-c3cc(S(=O)(=O)Nc4cccnc4)ccc3Cl)o2)cc1`: 803 s.
`Cc1ccc(-c2noc(-c3ccc(NCCCN4CCOCC4)nc3)n2)cc1` showed an RP-LC retention time of 695 s.
The result for `Cc1cc(NC(=O)Cn2ccn3nc(-c4ccccc4)c(CO)c3c2=O)no1` reads 714 s; that for `CCn1c(C2CCN(S(=O)(=O)Cc3ccc(F)cc3Cl)C2)nc2ccncc21` (centres undefined), 561 s.
Compound `CC(C)C(=O)NCCc1csc(C2CCCN(C(=O)C3CCCO3)C2)n1` (centres undefined) returned an RP-LC retention time of 622 s.
In turn, `O=C(O)c1ccccc1C(=O)Nc1cccc(Cl)c1` gave an RP-LC retention time of 701 s.
With `Cc1ccccc1NC(=O)NCC1CCOCC1`, the RP-LC retention time amounted to 658 s.
Next, `CCC(C)CC(=O)N1CCCN(C2=NS(=O)(=O)C(c3ccccc3)=C2C)CC1` (centres undefined): 828 s.
`O=C(NC1CCN(Cc2ccccc2)CC1)c1c(OCC2CC2)cc(=O)n2c1CCCCC2` registered an RP-LC retention time of 596 s.
The result for `COc1ccc(Cn2nc3ccc(S(=O)(=O)N4CCCCCC4)cn3c2=O)cc1F` reads 681 s.
Next, `Cn1c(=O)c2ccn(CC(=O)N3CCN(c4ccccc4F)CC3)c2n(C)c1=O`: 851 s; `Cc1ccc(NC(=O)CSc2nccc(N3CCN(c4cc(C)ccc4C)CC3)n2)cc1`: 950 s; `CCCn1cc(C(=O)NCC(=O)OC)c(S(=O)(=O)N2CCN(c3ccccc3OCC)CC2)n1`: 969 s.
Next, `COC(=O)CNC(=O)C1COc2ccc(NC(=O)c3ccc(Br)cc3)cc2C1` (centres undefined): 794 s; `COc1ccc(F)cc1S(=O)(=O)NC1CCc2nnc(C3CC3)n2CC1` (centres undefined): 641 s; `Cc1sc(-c2nnc(C3CC3)o2)cc1NC(=O)C1CC1`: 819 s.
Take `CS(=O)(=O)c1ccc(Nc2nc(C(=O)NCC3CCCO3)cs2)cc1` (centres undefined): the RP-LC retention time is 636 s.
Next, `Cc1ccc(-n2cc3c(c(C(=O)NC(C)C)c2=O)CC(C)(C)CC3=O)cc1`: 932 s; `CCn1cnc(S(=O)(=O)N2CCC(C(=O)N3CCN(c4ccccc4F)CC3)CC2)c1`: 762 s; `CN(C)c1cccc(C(=O)N2CCN(C(=O)c3nnn4c3COC(c3ccc(Cl)cc3)C4)CC2)c1` (centres undefined): 881 s.
Compound `CCC(=O)Nc1c(C)noc1/C=C\c1ccc(S(=O)(=O)N2CCN(c3ccccn3)CC2)cc1` showed an RP-LC retention time of 646 s.
The result for `O=C(NCc1cccc(F)c1)C1CCN(c2cnc3nccnc3c2)CC1` reads 680 s; that for `O=C(CSc1ccc(-n2ccnc2)nn1)N1CCc2ccccc21`, 578 s.
In the case of `COC1CCC12CCN(C(=O)CNC(C)=O)CC2` (centres undefined), the RP-LC retention time was 607 s.
Next, `COc1ccc(NC(=O)CN2CCc3[nH]c4c(C)cc(F)cc4c(=O)c3C2)cc1`: 600 s; `CC(C)c1ccc(-n2ncc3c(=O)n(Cc4nc(-c5ccc(Cl)cc5)no4)cnc32)cc1`: 1320 s.
As for `COc1ccc(N2CCN(C(CNC(=O)C(=O)Nc3ccon3)c3ccco3)CC2)cc1` (centres undefined), the RP-LC retention time was found to be 591 s.
Next, `CC(C)NC(=O)C(=O)NCC(c1ccc2c(c1)CCCN2C)N1CCCCC1` (centres undefined): 671 s; `Cc1ccc(C)c(NC(=O)C2CCCN2S(=O)(=O)c2cc3c(cc2C)NC(=O)C(C)O3)c1` (centres undefined): 845 s.
`CC(C)CNC(=O)CN1c2ccc(F)cc2-c2ccccc2S1(=O)=O` yielded an RP-LC retention time of 920 s.
The result for `Cc1noc(C)c1C(=O)N1CCCC1c1ccc(Cl)cc1` (centres undefined) reads 855 s.
Take `Cc1noc(/C=C\c2ccc(S(=O)(=O)NCC3CCCO3)cc2)c1NC(=O)C1CC1` (centres undefined): the RP-LC retention time amounted to 737 s.
Next, `COc1ccccc1-c1nc(COC(=O)C2=CN(Cc3ccccc3)S(=O)(=O)N=C2C)no1`: 1070 s.
Next, `COc1ccc(S(=O)(=O)N2CCCC(C(=O)Nc3c(F)cccc3F)C2)cc1OC` (centres undefined): 818 s; `COC(=O)C1=C(C)N(C2CCCC2)C(=O)C1(NC(=O)c1cccc(OC)c1)C(F)(F)F` (centres undefined): 1010 s; `CCCN1C(=O)c2ccccc2C(C(=O)NC2CCCCC2)C1c1cc(OC)c(OC)c(OC)c1` (centres undefined): 838 s.
Next, `Cn1cc(CCN2CCC(C(=O)N3CCCCCC3)CC2)c2cccnc21`: 595 s; `CCC(C)C(NC(=O)c1sccc1C)C(=O)Nc1nc2ccccc2[nH]1` (centres undefined): 746 s; `Cc1ccccc1Nc1c(-c2ccc(N(C)C)cc2)nc2c(C)cccn12`: 798 s.
`CN1C(=O)CO[C@@H](C(=O)Nc2ccc(F)cc2F)[C@@H]1c1ccccc1` yielded an RP-LC retention time of 766 s.
Regarding `Cc1nc(-c2cccc(-c3noc(CNC(=O)c4ccccc4)n3)c2)cs1`, the RP-LC retention time amounted to 918 s.
Next, `Cc1cccc(N2CCN(S(=O)(=O)c3ccc(-c4c(C)noc4C)cc3)CC2)c1C`: 1230 s; `Cn1c(=O)c(N2CCN(C(=O)c3ccc(F)cc3F)CC2)nc2ccncc21`: 586 s.
Next, `COc1cc(-c2nc(Cn3ccn4nc(-c5ccc(F)cc5)cc4c3=O)c(C)o2)cc(OC)c1OC`: 996 s.
The compound `O=C(NOC[C@H](O)CO)c1ccc(F)c(F)c1Nc1ccc(I)cc1F` registered an RP-LC retention time of 886 s.
Regarding `O=C(Cc1cccs1)N(c1ccc(Br)cc1)C1C=CS(=O)(=O)C1` (centres undefined), the RP-LC retention time is 833 s.
The compound `CC(C)CNC(=O)c1nc(-c2ccnc(N3CCC(C)CC3)c2)no1` displayed an RP-LC retention time of 814 s.
`Cc1nc2cccnc2n1CCN1CCN(C(=O)Nc2cccc(Br)c2)CC1` returned an RP-LC retention time of 607 s.
